Measurements as given in patent US4843075A, “Benzothiopyrano[4,3-c]pyridazine compounds, methods for preparing said compounds and uses of said compounds” (Yoshitomi Pharmaceutical Industries, Ltd., priority 1986, dated 1989).

Columns and labels:
benzodiazepine receptor = test: Displacement ability for benzodiazepine receptor (displacement of tritiated diazepam); conditions: displacement of tritiated diazepam (2 nM), rat cerebral cortex synaptosomal fraction, pH 7.4, 0° C., 20 minutes; read-out: binding for benzodiazepine Ki
Description: The experiment was performed according to the methods described in European Journal of Pharmacology, vol. 51, P. 129 (1978) and Life Science, vol. 20, p. 1201 (1977).
In brief, a crude synaptosomal fraction was isolated from the cerebral cortex of 9 to 10 week-old male Wistar rats and suspended in 50 mM of Tris-hydrochloric acid buffer solution (pH 7.4) containing 120 mM of sodium chloride and 5 mM of potassium chloride.
To the synaptosomal suspension as prepared above were added various concentrations of test compounds and tritiated diazepam (final concentration:2 nM), and the mixture was incubated at 0° C. for 20 minutes. Then the suspension was filtered through Whatman GF/B glass fiber filter. After the filter was washed with the foregoing buffer solution, the radioactivity left on the filter was measured by a liquid scintillation spectrometry.
Specific binding was determined by subtracting binding in the presence of 10^-6 M unlabelled diazepam from total binding.
According to the above experimental method, the affinity of the compounds of the present invention for benzodiazepine receptor is evaluated as an ability to displace tritiated diazepam from the binding site, and is represented as Ki value.

[1] = Anti-bicuculline effect (tonic convulsion in mice); assay type: in vivo, male ddY-strain mice; conditions: Mus musculus, oral, (+)bicuculline 0.6 mg/kg i.v. 1 hour after test compound, tonic convulsion within 5 minutes
Description: The experiment of anti-bicuculline effect was performed according to the method described in Life Science, vol. 21, p. 1779 (1977).
In brief, groups of 7-14 male ddY-strain mice weighing 20-28 g were used. (+)Bicuculline (0.6 mg/kg) was intraveneously administered 1 hour after the oral adminstration of test compound, and the ED50, 50% effective dose, was determined by observing the existence of tonic convulsion within 5 minutes.

Ki (benzodiazepine receptor) [nM] | Compound | ED50 [1] [mg/kg]
 | O=C1CC2C[S+]([O-])c3ccccc3C2=NN1c1ccc(Cl)cc1 (centres unmarked) [Example 3, 2-(4-chlorophenyl)-2,3,4,4a-tetrahydro-5H-(1)benzothiopyrano[4,3-c]pyridazin-3-one 6-oxide] | 4.1
12 | Cc1ccc(N2N=C3c4ccccc4SCC3CC2=O)cc1 (centres unmarked) [Example 9, 2-(4-methylphenyl)-2,3,4,4a-tetrahydro-5H-(1)benzothiopyrano[4,3-c]pyridazin-3-one] | 
13 | COc1ccc(N2N=C3c4ccccc4SCC3CC2=O)cc1 (centres unmarked) [Example 10, 2-(4-methoxyphenyl)-2,3,4,4a-tetrahydro-5H-(1)benzothiopyrano[4,3-c]pyridazin-3-one] | 
45 | O=C1CC2CSc3ccccc3C2=NN1c1ccc(Br)cc1 (centres unmarked) [Example 13, 2-(4-bromophenyl)-2,3,4,4a-tetrahydro-5H-(1)benzothiopyrano[4,3-c]pyridazin-3-one] | 
 | O=C1CC2C[S+]([O-])c3ccc(F)cc3C2=NN1c1ccc(Cl)cc1 (centres unmarked) [Example 19, 2-(4-chlorophenyl)-9-fluoro-2,3,4,4a-tetrahydro-5H-(1)benzothiopyrano[4,3-c]pyridazin-3-one 6-oxide] | 10.6
 | Cc1ccc2c(c1)C1=NN(c3ccc(Cl)cc3)C(=O)CC1C[S+]2[O-] (centres unmarked) [Example 23, 2-(4-chlorophenyl)-9-methyl-2,3,4,4a-tetrahydro-5H-(1)benzothiopyrano[4,3-c]pyridazin-3-one 6-oxide] | 40.6

Compound | Ki (benzodiazepine receptor) [nM] | ED50 [1] [mg/kg]
O=C1CC2CSc3ccccc3C2=NN1c1ccc(Cl)cc1 (centres unmarked) [Example 1, 2-(4-chlorophenyl)-2,3,4,4a-tetrahydro-5H-(1)benzothiopyrano[4,3-c]pyridazin-3-one] | 40 | 12.4
